The values that follow come from patent US6617117B1, “MAP kinases: polypeptides, polynucleotides and uses thereof” (Medical Research Council, priority 1996, dated 2003).

Test [1] concerns the target T1, SAPK3 (Rattus norvegicus, UniProt Q63538).
T1 construct: expressed in transfected cells; host or cells: human KB and 293 cells (vector pSG5)
T1 sequence (Q63538 1-367): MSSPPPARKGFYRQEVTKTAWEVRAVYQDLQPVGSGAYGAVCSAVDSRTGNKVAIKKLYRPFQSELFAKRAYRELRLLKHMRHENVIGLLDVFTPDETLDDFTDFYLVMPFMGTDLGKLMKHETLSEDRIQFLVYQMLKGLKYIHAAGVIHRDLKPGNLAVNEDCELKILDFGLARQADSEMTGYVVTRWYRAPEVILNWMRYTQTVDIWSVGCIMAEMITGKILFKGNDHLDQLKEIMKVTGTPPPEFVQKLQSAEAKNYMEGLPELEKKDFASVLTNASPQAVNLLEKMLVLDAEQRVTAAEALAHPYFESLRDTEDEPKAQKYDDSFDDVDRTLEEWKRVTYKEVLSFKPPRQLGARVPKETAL
Kind of test: Activation of transfected myc epitope-tagged SAPK3 in KB and 293 cells, immunoprecipitation and MBP assay. The test is classed as cell-based, human. The protocol:
FIG. 11. SAPK3 is activated by cytokines and cellular stresses in KB and 293 cells. KB cells (A) or 293 cells (B) were transiently transfected with a DNA construct expressing a myc epitope-tagged SAPK3. Cells in DMEM were stimulated for 15 min with 0.5 M sorbitol (an osmotic shock), 20 ng/ml IL-1α, 100 ng/ml TNFa, 0.5 mM sodium arsenite (a chemical stress), 100 ng/ml of EGF or 300 ng/ml TPA, or for 30 min with […] anisomycin or 10 min with 100 ng/ml IGF-1. UV-C irradiation of cells was carried out at 60 J/m2 (KB cells) or 200 J/m2 (293 cells) and the cells then left for a further 30 min at 37° C. before lysis. The myc epitope-tagged SAPK3 was immunoprecipitated from cell lysates using the 9E10 monoclonal antibody and assayed with MBP as substrate. […] After UV-C irradiation, SAPK3 activity in the extracts was 0.18 U/mg (KB cells) and 0.1 U/mg (293 cells).
Cell culture and transient transfections. 293, KB and COS-7 cells were cultured in Dulbecco's modified Eagles' Medium (DMEM) supplemented with 10% foetal calf serum, at 37° C., in an atmosphere of 5% CO2. Transfections of 293 cells were carried out using the calcium-phosphate method. […]

Test [2] has as its system MAPKAP-K2. The conditions noted are these: every mammalian cell so far examined; cited from earlier work.
The test system of test [3] is MAPKAP-K3. The note with it: every mammalian cell so far examined; cited from earlier work.
In test [4] the target is T2, SAPK3 (GST-SAPK3) (Rattus norvegicus, UniProt Q63538).
T2 construct: made in house; host or cells: E. coli BL21 (DE3)
T2 sequence (Q63538 1-367): T1 sequence (Q63538 1-367)
Description: Effect of SB 203580 on SKK3-activated SAPK3 (FIG. 19). The test is classed as biochemical. The conditions noted are these: even at a concentration of 0.1 mM; activated in vitro with purified SKK3. As for the experimental part:
Protein kinase assays. SAPK3 was assayed routinely by the phosphorylation of MBP. SAPK3 (0.5 or 1 μM) in 40 μl of 25 mM Tris/HCl pH 7.5, 0.1 mM EGTA, 0.1 mM sodium orthovanadate, 1 μM PKI and 0.33 mg/ml MBP was incubated for 3 min at 30° C. before initiating the reaction with 10 μl of 50 mM magnesium acetate-0.5 mM [γ-^32P]ATP. After 20 min at 30° C. 40 μl aliquots were withdrawn, spotted on to 1.5×1.5 cm squares of Whatman P81 phosphocellulose paper and immersed in 75 mM phosphoric acid. After washing and drying the papers (Alessi et al, 1995b), ^32P radioactivity incorporated into MBP was measured. One unit of activity was that amount of enzyme which incorporated 1 nmol of phosphate into MBP in 1 min.

Take `C[S+]([O-])c1ccc(-c2nc(-c3ccncc3)c(-c3ccc(F)cc3)[nH]2)cc1` (stereo not shown) [SB 203580]: in test [1], the “Prevention of activation of transfected SAPK3 by osmotic shock” value is recorded as “did not prevent”. Moreover, the “Suppression of stress- and cytokine-induced activation of MAPKAP-K2” value in test [2] is 80-95%. Besides, the “Suppression of stress- and cytokine-induced activation of MAPKAP-K3” value in test [3] was 80-95%. The “Inhibition of SAPK3” value in test [4] is “not inhibited significantly”.
